Laboratory results published in patent US8431554B2, “Compound showing anti-inflammatory activity and antiviral activity, pharmaceutical compositions comprising the same, a process for obtaining the same and use of the same in the treatment of epidemic keratoconjunctivites and herpetic stromal keratis” (priority 2007, dated 2013).
pEC50: −log10 of the molar value.

Tests used:
[1] = test system: strain KOS of HSV-1 (herpetic stromal keratitis); experiment: Murine model of herpetic stromal keratitis (HK) induced by HSV-1; assay type: in vivo, mice; details: for incidence of HK upon completion of the period of disease / severity of lesions versus non-treated infected mice / incidence of HK (mice with signs of keratitis): treated days 1, 2, 3 p.i.; for incidence of HK upon completion of the period of disease / incidence of HK (mice with signs of keratitis): FIG. 1A; for severity of lesions versus non-treated infected mice: FIG. 1B
Description: To determine if the treatment with compound I, after viral inoculation, affected the signs of HK, male mice of 6-8 weeks were anesthetized with ketamine/xylazine intraperitoneally and infected with the strain KOS of HSV-1 in the right corneas, previously scrapped with a needle. One group of animals was treated with buffered saline solution (PBS) (control of disease), while the rest were treated topically with a concentration of 40 μM of compound I three times a day. Also, groups of animals to control the antiviral activity of aciclovir (ACV) and anti-inflammatory activity of dexamethasone (DEX) were included, both drugs were commercially available.
It was determined the incidence of the disease as well as the degree of severity of the lesions and evolution of HK was determined under a magnifying glass during 15 days. The diagnosis of the disease is based on the density of inflammatory infiltrates, lengthening of vessels with corneal invasion (neovascularization), and the presence of surface ulcers. Therefore, mice presenting swollen eyelids (blepharitis), neovascularization in more than 10% of the corneal surface, and corneal opacity with or without signs of necrosis, were considered sick of HK.
The signs of ocular signs are gradually developed from the days 6-7 post-infection (p.i.) and the percentage of animals with HK and severity of the signs of the disease on days 3, 8, and 15 p.i were recorded (FIG. 1 y 2).
To evaluate the antiviral activity of compound I, the compound was applied to a group of animals on days 1, 2 y 3 p.i., the days when multiplication of HSV-1 in the cornea occurs. Also, other groups of mice were treated with ACV—as a positive control of antiviral activity—and with DEX.
To evaluate the anti-inflammatory activity of compound I, the compound was applied on days 6, 7 and 8 p.i., the time when HK manifests.

[2] = test system: alpha-TNF production in macrophages J774; experiment: Inhibition of alpha-TNF production in LPS-treated J774 macrophages; assay type: cell-based; details: different concentrations
Excerpt: Also, compound I has anti-inflammatory activity.
Also, said compound II has anti-inflammatory activity.

[3] = test system: mice; experiment: Toxicity assay in vivo; details: 40 μM, three times a day, three consecutive days
Description: A toxicity assay in vivo was performed.

[4] = Cytotoxicity used for the adenovirus selectivity index; assay type: cell-based; details: human; IOBA-NHC
Description: The antiviral selectivity index of Compound I for adenovirus is of 31.6. Said index was determined as a quotient between its viral activity (=63.2) and its cytotoxicity (=2).
The antiviral selectivity index of Compound II for adenovirus is of […] Said index was determined as a quotient between its viral activity (=62.6) and its cytotoxicity (=4).

[5] = test system: strain KOS of HSV-1 (herpetic stromal keratitis); experiment: Murine model of herpetic stromal keratitis (HK) induced by HSV-1; assay type: in vivo, mice; details: treated days 6, 7, 8 p.i.; read on day 10 p.i.; FIG. 2A
[6] = Cytotoxicity, colorimetric MTT assay in IOBA-NHC cells; assay type: cell-based; details: human, IOBA-NHC human conjunctival cells, confluent monolayers, 24 hours at 37° C., read-out: CC50 (Cytotoxyc concentration 50)
Description: The activity anti-HSV-1 of the compounds I and II was evaluated in human conjunctive cells (IOBA-NHC). First, it was determined cytotoxicity of the same for cells IOBA-NHC using the colorimetric assay with MTT, based on the cleavage of the tetrazolium salt MTT (3-(4,5-dimethylthiazol-2-yl)-2,5-diphenyl tetrazolium […]) by the mitochondrial enzyme succinate dehydrogenase, to obtain a blue product, formazan (Denizot F, Lang R. Rapid colorimetric assay for cell growth and survival. Journal of Immunological Methods 1986; 89:271-77). The compounds dissolved in ethanol are added to confluent monolayers of cells IOBA-NHC grown in microplates of 96 wells, in concentrations of up to 600 μM, according to the compound. The ethanol concentration was lower than 1%. After 24 hours of incubation at 37° C., the absorbency of each well was read at 570 nm, with a reference wave length of 630 nm. It was determined the 50% cytotoxyc concentration (CC50) as the concentration of compound that reduces absorbency to 50% in relation with the control not treated (Table 1).

[7] = test system: strain KOS of HSV-1; experiment: Anti-HSV-1 activity, virus yield in infected IOBA-NHC cells titrated in Vero cells; assay type: cell-based; details: for pEC50: Human alphaherpesvirus 1, Vero, HSV-1 KOS, m.i. 0.2, IOBA-NHC cells, 24 h, read-out: CE50 (Effective concentration 50); for IS, Selectivity index (CC50/CE50): anti-HSV-1, IOBA-NHC cells
Description: To evaluate the antiviral activity of the compounds I and II, monolayers of cells IOBA-NHC grown in microplates of 24 wells were infected with the strain KOS of HSV-1 at a multiplicity of infection (m.i.) of 0.2, and treated with different concentrations of the compounds. Infected cells not treated were used as control of the infection. After incubating at 37° C. during 24 h, the free and cell associated virus was harvested and titrated in Vero cells by plating in semisolid medium. It was observed an inhibition of dose-dependent viral replication in the cells treated with the compounds I and II (Table 1).

[8] = test system: adenovirus (ADV-5); experiment: Antiviral activity against adenovirus in infected IOBA-NHC cultures; assay type: cell-based; details: ADV-5, IOBA-NHC; for viral activity (used for selectivity index): multiplicity of infection of 1; for inhibition of adenovirus replication, in words: multiplicity of infection of 1, different concentrations
[9] = treated days 6, 7, 8 p.i., FIG. 2A

Structure (SMILES)	incidence of HK upon completion of the period of disease [1] [%]	severity of lesions versus non-treated infected mice [1]	incidence of HK (mice with signs of keratitis) ([1]; read on day 8 p.i.) [%]	HK signs, in words [1, 9]	severity of the signs of keratitis versus infection control ([1]; treated days 6, 7, 8 p.i., FIG. 2B)	mice with signs of the disease (HK) ([1]; treated days 6, 7, 8 p.i., read on day 8 p.i., FIG. 2A) [%]	inhibition of alpha-TNF production, in words [2]	toxic effects in vivo [3]	cytotoxicity [4]	mice with signs of the disease (HK) [5] [%]	CC50 at 24 h [6] [µM]	pEC50 [7]	IS, Selectivity index (CC50/CE50) [7]	antiviral selectivity index for adenovirus [8]	viral activity (used for selectivity index) [8]	inhibition of adenovirus replication, in words [8]
Nc1nc2c(ncn2COCCO)c(=O)[nH]1 [ACV, aciclovir, reference compound]	30	significant differences	10	had no effect on the improvement of disease signs												
CC[C@@H](C(C)C)[C@H](O)[C@@H](O)[C@@H](C)[C@H]1CC[C@H]2[C@@H]3CCC4=CC(=O)CC[C@]4(C)[C@H]3CC[C@]12C [Compound I, (22S,23S)-22,23-dihydroxystigmast-4-en-3-one]	40	significant differences	30	reduced significantly	lower	30	inhibits production of alpha-TNF	absence of toxic effects	2	40	71.2	5.27	13.2	31.6	63.2	inhibits virus replication according to the concentration of compound used
CC[C@@H](C(C)C)[C@H](O)[C@@H](O)[C@@H](C)[C@H]1CC[C@H]2[C@@H]3CCC4=CC(=O)C=C[C@]4(C)[C@H]3CC[C@]12C [Compound II, (22S,23S)-22,23-dihydroxystigmasta-1,4-dien-3-one]							inhibits production of alpha-TNF		4		70.8	4.75	3.9	15.67	62.6	inhibits virus replication according to the concentration of compound used
